Key:
cyno PBMCs = assay: Compound-induced cytokine release (ELISA); assay type: cell-based, cynomolgus monkey; details: IL-6 and MCP-1 (FIG. 5A-5B); 48 hr
Method: This example evaluates the ability of Compound 1 to induce cytokine release in human PBMCs, cyno PBMCs and mouse splenocytes. Compound A and resiquimod, above, were used as controls in the assays.
Human and cyno PBMCs, mouse splenocytes were isolated as described in previous example. On the day of the assay, 300k of PBMC or splenocytes in 50 μL of culture medium were seeded in 96-well cell culture plates. 50 μL of the test articles (formulated at 2× of starting concentration) were then added into the well. The cell mixtures were co-cultured in the presence of test articles and 10 μg/mL LPS-RS for 24 hrs (human PBMCs) or 48 hr (cyno PBMCs and mouse splenocytes). Released cytokines in cell culture medium were measured by ELISA.

human TLR8 = target: T1, human TLR8 (Homo sapiens, UniProt Q9NR97); assay: HEK293 SEAP reporter assay, human TLR8 (Biological Example 1); assay type: cell-based; details: HEK293-humanTLR8 reporter cells, 4 hrs; read-out: hTLR8 EC50
T1 construct: host or cells: HEK293
T1 sequence (Q9NR97 27-1041): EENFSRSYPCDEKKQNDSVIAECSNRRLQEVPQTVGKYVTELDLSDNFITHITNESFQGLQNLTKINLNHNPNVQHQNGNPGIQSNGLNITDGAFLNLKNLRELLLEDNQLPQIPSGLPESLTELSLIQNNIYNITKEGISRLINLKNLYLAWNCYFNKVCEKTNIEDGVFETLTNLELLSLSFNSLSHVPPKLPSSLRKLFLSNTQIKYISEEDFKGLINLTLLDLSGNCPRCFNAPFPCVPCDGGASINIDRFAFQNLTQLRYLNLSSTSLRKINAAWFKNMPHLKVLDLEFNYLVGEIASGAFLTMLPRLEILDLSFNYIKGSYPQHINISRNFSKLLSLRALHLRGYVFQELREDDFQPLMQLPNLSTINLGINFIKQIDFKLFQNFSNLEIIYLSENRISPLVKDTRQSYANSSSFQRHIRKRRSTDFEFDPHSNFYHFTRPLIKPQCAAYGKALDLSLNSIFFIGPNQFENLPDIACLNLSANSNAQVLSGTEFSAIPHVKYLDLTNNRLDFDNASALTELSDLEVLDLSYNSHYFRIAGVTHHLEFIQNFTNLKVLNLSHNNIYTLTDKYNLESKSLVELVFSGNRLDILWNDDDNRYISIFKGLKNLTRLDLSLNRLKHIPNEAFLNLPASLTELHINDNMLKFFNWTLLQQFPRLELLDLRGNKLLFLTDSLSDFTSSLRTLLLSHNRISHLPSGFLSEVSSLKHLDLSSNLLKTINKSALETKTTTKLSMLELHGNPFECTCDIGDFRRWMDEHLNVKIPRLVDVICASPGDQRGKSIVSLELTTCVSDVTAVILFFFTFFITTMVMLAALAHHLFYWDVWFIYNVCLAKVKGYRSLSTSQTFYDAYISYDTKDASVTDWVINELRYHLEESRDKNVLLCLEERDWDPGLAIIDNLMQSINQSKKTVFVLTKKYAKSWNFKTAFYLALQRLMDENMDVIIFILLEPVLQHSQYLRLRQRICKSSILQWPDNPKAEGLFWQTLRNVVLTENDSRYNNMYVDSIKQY
Method: In this example, the activity of the TLR7 agonists to activate human TLR7, hTLR7 (or human TLR8, hTLR8, or mouse TLR7, mTLR7) pathway was evaluated on HEK293 reporter cells transfected with human TLR7 (or mouse TLR7 or human TLR8) and an inducible SEAP (secreted embryonic alkaline phosphatase) reporter gene. The SEAP reporter gene is placed under the control of the IFN-β minimal promoter fused to five NF-κB and AP-1-binding sites. Stimulation with a TLR7 agonist activates NF-KB and AP-1 which induces the production of SEAP. Levels of SEAP was determined with HEK-Blue Detection medium.
HEK293-humanTLR7, HEK293-mouseTLR7 and HEK293-humanTLR8 reporter cell lines were purchased from Invivogen and cell lines were maintained in manufacture recommended culture medium with required supplemental antibiotics. On the day of assay, the cells were harvested with Accutase and counted by the Vi-CELL Cell Viability Analyzers. Cells were re-suspended in HEK blue detection medium and a total of 10000 cells were seeded in each well of a 384-well flat bottom plate. Serial dilutions of TLR7 agonists free drugs (1:3 serial dilution starting from 5 μM) was added into treatment wells. Assay plates were cultured at 37° C. in a CO2 incubator for […]. HEK-Blue™ Detection medium changes to a purple/blue color in the presence of secreted SEAP, which can be detected by spectrophotometry at 620-655 nm. […]

KB cells = assay: In vitro cytotoxicity, cell proliferation assay (Cell Titer-Glo); assay type: cell-based; details: concentration up to 1 μM, 120 hrs
Method: The cytotoxicity of Compound 1 was tested in a cell proliferation assay on KB cells. KB cells were obtained from ATCC and were maintained in Ham's F-12: high glucose DMEM (50:50) (Corning) supplemented with 10% heat-inactivated fetal bovine serum (Corning), 1% Penicillin/Streptomycin (Corning) and 2 mmol/L-glutamax (Thermo Fisher Scientific). One day before the assay, KB cells were harvested with Accutase and a total of 625 cells were seeded in each well of a 384-well flat bottom white polystyrene plate. Compound 1 was formulated at 2-fold starting concentration in the cell culture medium. Serial dilutions of Compound 1 (1:4 serial dilution starting from 1000 nM) was added into treatment wells. Assay plates were cultured at 37° C. in a CO2 incubator for 120 hrs before assay. For cell viability measurement, 30 μL of Cell Titer-Glo® reagent (Promega Corp. Madison, Wis.) was added into each well, and plates were processed as per product instructions. Relative luminescence was measured on an ENVISION® plate reader (Perkin-Elmer; Waltham, Mass.). Relative luminescence readings were converted to percent viability using untreated cells as controls. Data was fitted with non-linear regression analysis, using a log(inhibitor) vs. response-variable slope, 4-parameter fit with GraphPad Prism (GraphPad v 5.0, Software; San Diego, California).

CCCCn1nc2c(N)nc3ccccc3c2c1Cc1ccc(CN)cc1 [Compound 1, 1-(4-(aminomethyl)benzyl)-2-butyl-2H-pyrazolo[3,4-c]quinolin-4-amine]
cytokine release from cyno PBMCs (cyno PBMCs): stimulated strong | EC50 (human TLR8): 820 nM | cytotoxicity on KB cells (KB cells): did not show any cytotoxicity
